From patent US20150105252A1, “SUBSTITUTED PYRAZOLES AS HERBICIDES” (E I DU PONT DE NEMOURS AND COMPANY, priority 2013, published 2015)

Tests used:
buckwheat, wild = test: Test D postemergence; assay type: in vivo, Polygonum convolvulus; conditions: scale 0 to 100
Outline: (§1)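 Formulation was a non-phytotoxic solvent mixture plus surfactant, applied either to soil at planting (silt loam, preemergence) or to foliage of 2–18 cm plants (postemergence). Visual evaluation versus controls followed at 14–21 days, scored 0–100.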

foxtail, green = test: Test D preemergence; assay type: in vivo, Setaria viridis; conditions: scale 0 to 100
Outline: as §1

chickweed = test: Test D preemergence; assay type: in vivo, Stellaria media; conditions: scale 0 to 100
Outline: as §1

nightshade = test: Test F preemergence; assay type: in vivo, Solanum ptycanthum
Outline: (§2)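 Pre- and postemergence applications used the same formulation, a non-phytotoxic solvent mixture including surfactant. Soil-applied treatment followed sowing into silt loam, whereas foliar treatment hit plants at the 1- to 4-leaf stage. Scores (0 = no effect, 100 = complete control) were assigned visually after 14–21 days.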

bluegrass = test: Test D preemergence; assay type: in vivo, Poa annua; conditions: scale 0 to 100
Outline: as §1

Surinam grass = test: Test F preemergence; assay type: in vivo, Brachiaria decumbens
Outline: as §2

radish, wild = test: Test D postemergence; assay type: in vivo, Raphanus raphanistrum; conditions: scale 0 to 100
Outline: as §1

blackgrass = test: Test D postemergence; assay type: in vivo, Alopecurus myosuroides; conditions: scale 0 to 100
Outline: as §1

southern sandbur = test: Test F preemergence; assay type: in vivo, Cenchrus echinatus
Outline: as §2

field bindweed = test: Test F preemergence; assay type: in vivo, Convolvulus arvensis
Outline: as §2

corn = test: Test F preemergence; assay type: in vivo, Zea mays
Outline: as §2

ryegrass, Italian = test: Test D postemergence; assay type: in vivo, Lolium multiflorum; conditions: scale 0 to 100
Outline: as §1

barnyardgrass = test: Test F preemergence; assay type: in vivo, Echinochloa crus-galli
Outline: as §2

[1] = Preemergence, 31 g ai/ha, scale 0 to 100
[2] = Preemergence, 62 g ai/ha, scale 0 to 100
[3] = Preemergence, 125 g ai/ha, scale 0 to 100
[4] = preemergence, 8 g ai/ha, scale 0 to 100, 100 is complete control
[5] = preemergence, 16 g ai/ha, scale 0 to 100, 100 is complete control

Structure (SMILES): CCCc1cc(C(=O)NCC(F)(F)F)nn1Cc1ccnc(C(F)(F)F)c1 [Compound 105]
- Buckwheat, Wild plant response rating (buckwheat, wild; Postemergence, 31 g ai/ha): 55
- Buckwheat, Wild plant response rating (buckwheat, wild; Postemergence, 125 g ai/ha): 70
- Buckwheat, Wild plant response rating (buckwheat, wild; Postemergence, 250 g ai/ha): 80
- Buckwheat, Wild plant response rating (buckwheat, wild; postemergence, 62 g ai/ha): 65
- Plant response rating, Foxtail, Green (foxtail, green; 31 g ai/ha): 45
- Plant response rating, Foxtail, Green (foxtail, green; 62 g ai/ha): 100
- Plant response rating, Foxtail, Green (foxtail, green; 125 g ai/ha): 100
- Plant response rating, Foxtail, Green (foxtail, green; 250 g ai/ha): 100
- Plant response rating, Chickweed (chickweed; 31 g ai/ha): 95
- Plant response rating, Chickweed (chickweed; 62 g ai/ha): 100
- Plant response rating, Chickweed (chickweed; 125 g ai/ha): 100
- Plant response rating, Chickweed (chickweed; 250 g ai/ha): 100
- Plant response rating, Nightshade (nightshade; [1]): 70
- Plant response rating, Nightshade (nightshade; [2]): 100
- Plant response rating, Nightshade (nightshade; [3]): 100
- Plant response rating, Nightshade (nightshade; [4]): 0
- Plant response rating, Nightshade (nightshade; [5]): 65
- Plant response rating, Bluegrass (bluegrass; 31 g ai/ha): 55
- Plant response rating, Bluegrass (bluegrass; 62 g ai/ha): 80
- Plant response rating, Bluegrass (bluegrass; 125 g ai/ha): 100
- Plant response rating, Bluegrass (bluegrass; 250 g ai/ha): 100
- Plant response rating, Surinam Grass (Surinam grass; [1]): 10
- Plant response rating, Surinam Grass (Surinam grass; [2]): 35
- Plant response rating, Surinam Grass (Surinam grass; [3]): 40
- Plant response rating, Surinam Grass (Surinam grass; [4]): 0
- Plant response rating, Surinam Grass (Surinam grass; [5]): 10
- Radish, Wild plant response rating (radish, wild; Postemergence, 31 g ai/ha): 35
- Radish, Wild plant response rating (radish, wild; Postemergence, 125 g ai/ha): 70
- Radish, Wild plant response rating (radish, wild; Postemergence, 250 g ai/ha): 80
- Radish, Wild plant response rating (radish, wild; postemergence, 62 g ai/ha): 55
- Blackgrass plant response rating (blackgrass; Postemergence, 31 g ai/ha): 10
- Blackgrass plant response rating (blackgrass; Postemergence, 125 g ai/ha): 65
- Blackgrass plant response rating (blackgrass; Postemergence, 250 g ai/ha): 70
- Blackgrass plant response rating (blackgrass; postemergence, 62 g ai/ha): 15
- Plant response rating, Southern Sandbur (southern sandbur; [1]): 10
- Plant response rating, Southern Sandbur (southern sandbur; [2]): 75
- Plant response rating, Southern Sandbur (southern sandbur; [3]): 95
- Plant response rating, Southern Sandbur (southern sandbur; [4]): 0
- Plant response rating, Southern Sandbur (southern sandbur; [5]): 0
- Plant response rating, Field Bindweed (field bindweed; [1]): 75
- Plant response rating, Field Bindweed (field bindweed; [2]): 40
- Plant response rating, Field Bindweed (field bindweed; [3]): 100
- Plant response rating, Field Bindweed (field bindweed; [4]): 0
- Plant response rating, Field Bindweed (field bindweed; [5]): 10
- Plant response rating, Corn (corn; [1]): 40
- Plant response rating, Corn (corn; [2]): 40
- Plant response rating, Corn (corn; [3]): 60
- Plant response rating, Corn (corn; [4]): 20
- Plant response rating, Corn (corn; [5]): 30
- Ryegrass, Italian plant response rating (ryegrass, Italian; Postemergence, 31 g ai/ha): 5
- Ryegrass, Italian plant response rating (ryegrass, Italian; Postemergence, 125 g ai/ha): 40
- Ryegrass, Italian plant response rating (ryegrass, Italian; Postemergence, 250 g ai/ha): 65
- Ryegrass, Italian plant response rating (ryegrass, Italian; postemergence, 62 g ai/ha): 5
- Plant response rating, Barnyardgrass (barnyardgrass; [1]): 30
- Plant response rating, Barnyardgrass (barnyardgrass; [2]): 98
- Plant response rating, Barnyardgrass (barnyardgrass; [3]): 98
- Plant response rating, Barnyardgrass (barnyardgrass; [4]): 0
- Plant response rating, Barnyardgrass (barnyardgrass; [5]): 5
